Source: US20140112878A1, “Tyrosinase Inhibitor” (priority 2012, published 2014)

How the values were obtained:
[1] = molecular target: T1, tyrosinase (DOPA oxidase activity) in normal human neonatal epidermal melanocytes (NHEMs) (Homo sapiens, UniProt P14679); assay: DOPA oxidase activity in cultured normal human neonatal epidermal melanocytes
T1 sequence (P14679 19-529): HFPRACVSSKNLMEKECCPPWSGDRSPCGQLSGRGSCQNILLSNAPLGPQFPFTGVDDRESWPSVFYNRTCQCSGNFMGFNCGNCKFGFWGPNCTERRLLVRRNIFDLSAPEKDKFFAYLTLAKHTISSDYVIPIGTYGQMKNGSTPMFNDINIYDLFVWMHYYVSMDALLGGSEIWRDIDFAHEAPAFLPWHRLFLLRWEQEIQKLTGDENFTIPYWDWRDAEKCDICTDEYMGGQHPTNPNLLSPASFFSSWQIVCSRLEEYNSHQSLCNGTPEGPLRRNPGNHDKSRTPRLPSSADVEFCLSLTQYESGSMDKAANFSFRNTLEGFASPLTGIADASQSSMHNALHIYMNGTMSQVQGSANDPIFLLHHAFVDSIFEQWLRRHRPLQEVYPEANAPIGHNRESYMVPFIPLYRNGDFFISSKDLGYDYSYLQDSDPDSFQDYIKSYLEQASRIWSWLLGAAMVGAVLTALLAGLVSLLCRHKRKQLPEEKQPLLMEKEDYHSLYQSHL
Description: (§1) Medium 254 containing a PMA-free growth supplement (HMGS) was used as a medium.
(§2) After cultivating for 3 days, Endotheline-1 (ET-1), SCF, α-MSH, Histamine, and PGE2, each prepared to be the final concentration of 1 nM in the medium, were added. The same test compounds used in Example 1 were also added so as to reach the final concentration. The mixture was cultured at 37° C. for 3 days, in the presence of 5% CO2. The same amount of DMSO was added as a control.
After the completion of the cultivation, 20 L/well of alamar blue reagent (Invitrogen Corporation) was added. After incubating for 2 to 3 hours, the fluorescence intensity of the medium was measured to monitor the cell respiration activity. Then, the cells were washed with PBS, and 20 μL/well of extraction buffer (0.1 M Tris-HCL (pH 7.2), 1% NP-40, 0.01% SDS, 100 μM PMSF, 1 μg/m aprotinin) and 20 μL/well of Assay Buffer (4% dimethylformamide, 100 mM Sodium phosphate-buffered (pH 7.1)) were added. The cells were solubilized at 4° C. for 3 hours, and DOPA oxidase activity was measured. DOPA oxidase activity was measured according to the following method, with reference to the MBTH method (Winder A. et al., 1991, Eur. J. Biochem. 198:317-326).
80 μL of the above-mentioned Assay Buffer, 60 μL of 20.7 mM MBTH (3-methyl-2-benzothiazolinone hydrazone) solution, and 40 μL of 5 mM L-DOPA (L-dihydroxyphenylalanine) solution as a substrate, were added to each well of solubilized cell solution, and the mixture was allowed for reaction at 37° C. for 30 to 60 minutes. Then the color reaction was measured based on absorbance at 490 nm (N=3). The measurements are expressed as values relative to that of the control.

[2] = molecular target: T2, human tyrosinase (neonatal epidermal melanocyte extract) (Homo sapiens, UniProt P14679); assay: DOPA oxidase activity (MBTH method) in cell extract; type: biochemical; conditions: for DOPA oxidase activity, value relative to that of the control: N=3; for DOPA oxidase activity suppressive effect (in words): IPMP 0.00075 to 0.015 w/v %
T2 construct: host or cells: normal human neonatal epidermal melanocytes (NHEMs), detergent/ultrasonication lysate supernatant
T2 sequence (P14679 19-529): T1 sequence (P14679 19-529)
Description: The cells were then treated with ultrasonication, and were centrifuged at 15000 r.p.m. for 10 minutes, and the supernatant was obtained.
Tyrosinase activity was measured using the cell extract mentioned above. […] Then, 20 μL of the following test compounds were added to the wells so that the mixture reaches the final concentration shown in Table 1.

[3] = test system: Normal human neonatal epidermal melanocytes (NHEMs); assay: Alamar blue cell respiration activity (cell toxicity); type: cell-based; conditions: for Alamar blue (cell toxicity) AVE: cultured NHEMs
Description: as §1, §2
After the completion of the cultivation, 20 L/well of alamar blue reagent (Invitrogen Corporation) was added. After incubating for 2 to 3 hours, the fluorescence intensity of the medium was measured to monitor the cell respiration activity. Then, the cells were washed with PBS, and 20 μL/well of extraction buffer (0.1 M Tris-HCL (pH 7.2), 1% NP-40, 0.01% SDS, 100 μM PMSF, 1 μg/m aprotinin) and 20 μL/well of Assay Buffer (4% dimethylformamide, 100 mM Sodium phosphate-buffered (pH 7.1)) were added. The cells were solubilized at 4° C. for 3 hours, and DOPA oxidase activity was measured.

[4] = test system: mouse melanoma B-16 cells; conditions: reported in JP-A-9-249544; cited from earlier work
[5] = test system: mushroom-derived tyrosinase; conditions: reported in JP-A-9-249544; cited from earlier work
[6] = 0.67 μM (0.00001 w/v %), Example 3
[7] = 10 μM (IPMP 0.00015 w/v %), 3 days, Example 2
[8] = 100 μM (IPMP 0.0015 w/v %), 3 days, Example 2
[9] = 167.5 μM (0.0025 w/v %), Example 3

| DOPA oxidase activity AVE, relative to control [1, 7] | DOPA oxidase activity AVE, relative to control [1, 8] | DOPA oxidase activity, value relative to that of the control ([2]; 50 μM (IPMP 0.00075%)) | DOPA oxidase activity, value relative to that of the control ([2]; 100 μM (IPMP […])) | DOPA oxidase activity, value relative to that of the control ([2]; 500 μM (IPMP 0.0075%)) | DOPA oxidase activity, value relative to that of the control ([2]; 1000 μM (IPMP […])) | Structure (SMILES) | Alamar blue (cell toxicity) AVE [3, 7] | Alamar blue (cell toxicity) AVE [3, 8] | DOPA oxidase activity suppressive effect (in words) ([1]; Example 2) | Suppressive effect on melanin production (in words) [4] | DOPA oxidase activity suppressive effect (in words) [2] | Inhibitory activity on mushroom-derived tyrosinase (in words) [5] | other results |
| --- | --- | --- | --- | --- | --- | --- | --- | --- | --- | --- | --- | --- | --- |
| 74.8 | 50.6 | 83.1 ± 3.9 | 62.9 ± 3.5 | 32.8 ± 3.7 | 19.8 ± 1.2 | Cc1cc(O)ccc1C(C)C [IPMP, isopropylmethylphenol] | 94.1 | 127 | – | – | – | – | DOPA oxidase activity AVE, relative to control [1, 6]: 73.7; DOPA oxidase activity AVE, relative to control ([1]; 6.7 μM, Example 3): 56.5; DOPA oxidase activity AVE, relative to control ([1]; 67 μM (0.001 w/v %), Example 3): 33.9; DOPA oxidase activity AVE, relative to control [1, 9]: 25.6; Alamar blue (cell toxicity) AVE [3, 6]: 84.9; Alamar blue (cell toxicity) AVE ([3]; 6.7 μM (6.0001 w/v %), Example 3): 85.4; Effect on cell growth (in words) ([3]; 0.00001 to 0.0025 w/v %, Example 3): did not affect cell growth; Alamar blue (cell toxicity) AVE ([3]; 67 μM (0.001 w/v %), Example 3): 78.9; Alamar blue (cell toxicity) AVE [3, 9]: 77.0; Effect on cell growth (alamar blue method, in words) ([3]; at the concentration which showed DOPA oxidase activity suppressive effect, Example 2): did not affect cell growth |
| – | – | – | – | – | – | O=c1cc(CO)occ1O [Kojic acid] | 118.3 | 114.4 | – | – | – | – | – |
| 98.6 | 95 | 103.7 ± 0.9 | 93.8 ± 1.6 | 104.4 ± 0.8 | 105.4 ± 0.5 | Cc1ccc(C(C)C)c(O)c1 [compound 1, thymol] | 84.9 | 104.4 | did not show DOPA oxidase activity suppressive effect | exhibit suppressive effect on melanin production | did not show DOPA oxidase activity suppressive effect | exhibit inhibitory activity on mushroom-derived tyrosinase | – |

| Structure (SMILES) | DOPA oxidase activity AVE, relative to control [1, 7] | DOPA oxidase activity AVE, relative to control [1, 8] | DOPA oxidase activity, value relative to that of the control ([2]; 50 μM (IPMP 0.00075%)) | DOPA oxidase activity, value relative to that of the control ([2]; 100 μM (IPMP […])) | DOPA oxidase activity, value relative to that of the control ([2]; 500 μM (IPMP 0.0075%)) | DOPA oxidase activity, value relative to that of the control ([2]; 1000 μM (IPMP […])) | Alamar blue (cell toxicity) AVE [3, 7] | Alamar blue (cell toxicity) AVE [3, 8] | DOPA oxidase activity suppressive effect (in words) ([1]; Example 2) | Suppressive effect on melanin production (in words) [4] | DOPA oxidase activity suppressive effect (in words) [2] | Inhibitory activity on mushroom-derived tyrosinase (in words) [5] | other results |
| --- | --- | --- | --- | --- | --- | --- | --- | --- | --- | --- | --- | --- | --- |
| Cc1ccc(C(C)C)cc1O [compound 2, carvacrol] | 99.3 | 96.3 | 102.1 ± 0.5 | 96.9 ± 1.8 | 99.6 ± 1.8 | 97.8 ± 1.9 | 94.2 | 115.2 | did not show DOPA oxidase activity suppressive effect | exhibit suppressive effect on melanin production | did not show DOPA oxidase activity suppressive effect | exhibit inhibitory activity on mushroom-derived tyrosinase | – |
